Data taken from BindingDB's records for doi:10.1021/bi400945y (Johns Hopkins Bloomberg School of Public Health, 2013).

biological target: T1, Enoyl-acyl carrier reductase ENR (Toxoplasma gondii, UniProt Q6UCJ9); assay: TgENR Inhibition Assay; conditions: pH 7.5
T1 sequence (Q6UCJ9 whole entry): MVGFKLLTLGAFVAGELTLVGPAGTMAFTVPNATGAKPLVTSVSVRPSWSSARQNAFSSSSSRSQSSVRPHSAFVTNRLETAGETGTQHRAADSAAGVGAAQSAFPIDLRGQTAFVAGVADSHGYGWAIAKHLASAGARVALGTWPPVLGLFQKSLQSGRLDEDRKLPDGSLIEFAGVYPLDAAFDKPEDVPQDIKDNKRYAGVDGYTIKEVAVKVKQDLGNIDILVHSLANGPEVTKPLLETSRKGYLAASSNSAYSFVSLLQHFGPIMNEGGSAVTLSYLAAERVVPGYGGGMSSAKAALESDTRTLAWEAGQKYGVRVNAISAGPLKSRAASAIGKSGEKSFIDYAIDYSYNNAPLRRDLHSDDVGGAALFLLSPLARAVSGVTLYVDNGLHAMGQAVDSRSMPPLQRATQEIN

Row | SMILES | IC50
1 | Oc1cc(Cl)ccc1Oc1ccc(NCc2ccccc2)cc1Cl | 13 nM
2 | Oc1ccc(Oc2ccc(Cl)cc2O)c(Cl)c1 | 3 nM
3 | N#Cc1ccccc1CNc1ccc(Oc2ccc(Cl)cc2O)c(Cl)c1 | 16 nM
4 | CCc1ccc(Oc2ccc(Cl)cc2Cl)c(O)c1 [2‐(2,4‐dichlorophenoxy)‐5‐ethylphenol (11)] | 8 nM
5 | CCCCc1cn(Cc2ccc(Oc3ccc(Cl)cc3O)c(Cl)c2)nn1 [2‐{4‐[(4‐butyl‐1,2,3‐triazol‐1‐yl)methyl]‐2‐ chlorophenoxy}‐5‐chlorophenol (25)] | 43 nM
6 | N#Cc1ccc(Oc2ccc(Cl)cc2Cl)c(O)c1 [4‐(2,4‐dichlorophenoxy)‐3‐hydroxybenzonitrile (19)] | 24 nM
7 | Oc1cc(Cl)ccc1Oc1ccc(Cn2ccnn2)cc1Cl [5‐chloro‐2‐[2‐chloro‐4‐(1,2,3‐triazol‐1‐ ylmethyl)phenoxy]phenol (24)] | 26 nM
8 | Oc1cc(Cl)ccc1Oc1ccc(CNc2ccccc2)cc1Cl [5‐chloro‐2‐{2‐chloro‐4‐ [(phenylamino)methyl]phenoxy}phenol (26)] | 31 nM
9 | Cc1cc(CC(=O)NCc2ccc(Oc3ccc(Cl)cc3O)c(Cl)c2)on1 [N‐{[3‐chloro‐4‐(4‐chloro‐2‐ hydroxyphenoxy)phenyl]methyl}‐2‐(3‐methyl‐1,2‐ oxazol‐5‐yl)acetamide (28)] | 33 nM
10 | Cc1cc(C(=O)NCc2ccc(Oc3ccc(Cl)cc3O)c(Cl)c2)no1 [N‐{[3‐chloro‐4‐(4‐chloro‐2‐ hydroxyphenoxy)phenyl]methyl}‐5‐methyl‐1,2‐oxazole‐3‐ carboxamide (29)] | 100 nM
